Data from patent publication US9751869B2, “LXR modulators” (BRISTOL-MYERS SQUIBB COMPANY, priority 2013, dated 2017).

Target: T1, LXRβ (Homo sapiens, UniProt P55055)
T1 construct: Co-transfection expression plasmids, comprising full-length LXRα (pCMX-h LXRα or LXRβ (pCMX-hLXRβ)); expressed in transfected cells; host or cells: CV-1 African green monkey kidney cells, transient transfection with pCMX-hLXRβ
T1 sequence (P55055 1-460): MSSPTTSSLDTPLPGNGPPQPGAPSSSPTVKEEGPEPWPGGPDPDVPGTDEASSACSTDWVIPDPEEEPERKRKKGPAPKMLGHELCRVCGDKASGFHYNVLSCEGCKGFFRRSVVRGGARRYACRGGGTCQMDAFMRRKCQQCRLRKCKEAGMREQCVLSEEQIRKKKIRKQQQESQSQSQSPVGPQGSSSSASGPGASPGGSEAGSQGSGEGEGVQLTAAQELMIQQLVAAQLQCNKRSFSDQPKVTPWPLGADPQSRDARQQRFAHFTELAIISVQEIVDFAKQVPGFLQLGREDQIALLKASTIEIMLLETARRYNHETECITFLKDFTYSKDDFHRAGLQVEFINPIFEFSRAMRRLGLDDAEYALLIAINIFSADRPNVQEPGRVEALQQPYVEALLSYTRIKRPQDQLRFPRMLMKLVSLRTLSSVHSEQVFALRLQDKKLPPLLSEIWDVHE
T1 sequence (P19793 1-462 partner): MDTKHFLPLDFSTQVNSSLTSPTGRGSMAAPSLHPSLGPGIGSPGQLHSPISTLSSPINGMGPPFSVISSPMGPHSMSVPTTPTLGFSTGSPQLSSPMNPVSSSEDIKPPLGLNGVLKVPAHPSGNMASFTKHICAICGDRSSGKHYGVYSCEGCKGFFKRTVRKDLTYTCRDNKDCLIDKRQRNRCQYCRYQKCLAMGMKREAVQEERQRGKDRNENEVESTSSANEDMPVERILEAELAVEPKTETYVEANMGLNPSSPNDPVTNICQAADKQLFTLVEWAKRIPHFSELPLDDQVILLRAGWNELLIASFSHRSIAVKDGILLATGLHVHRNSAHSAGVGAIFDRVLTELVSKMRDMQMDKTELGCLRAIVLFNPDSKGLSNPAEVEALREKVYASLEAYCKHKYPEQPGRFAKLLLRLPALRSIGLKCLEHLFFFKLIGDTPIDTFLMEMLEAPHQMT
Assay: LXR/LXRE co-transfection assay (luciferase reporter) in CV-1 cells, LXRβ
Assay type: cell-based
Settings: for EC50: CV-1 cells transfected with pCMX-hLXRβ and LXREx1-Tk-Luciferase, 20 hours incubation, read-out: LXRbeta agonism EC50; for Emax: CV-1 cells, relative to maximum response of high control N-(3-((4-fluorophenyl)-(naphthalene-2-sulfonyl)amino)propyl)-2,2-dimethylpropionamide, read-out: LXRbeta % EFFICACY
Excerpt: To measure the ability of compounds to activate or inhibit the transcriptional activity of LXR in a cell based assay, the co-transfection assay was used. It has been shown that LXR functions as a heterodimer with RXR. For the co-transfection assay, expression plasmids for LXRα and LXRβ are introduced separately via transient transfection into mammalian cells along with a luciferase reporter plasmid that contains one copy of a DNA sequence that is bound by LXR-RXR heterodimers (LXRE; Willy, P. et. al. 1995). LXRs heterodimerize with the endogenous RXR. Treatment of transfected cells with an LXR agonist increases the transcriptional activity of LXR, which is measured by an increase in luciferase activity.
Co-transfection expression plasmids, comprising full-length LXRα (pCMX-h LXRα or LXRβ (pCMX-hLXRβ), reporter plasmid (LXREx1-Tk-Luciferase), and control (pCMX-Galactosidase expression vector) (Willey et al. Genes & Development 9 1033-1045 (1995)).
CV-1 cells were prepared 24 hours prior to the experiment by plating them into T-175 flasks or 500 cm^2 dishes in order to achieve 70-80% confluency on the day of the transfection. The number of cells to be transfected was determined by the number of plates to be screened. Each well of a 384 well plate requires 1.5×10^4 cells. DNA Transfection Reagent was prepared by mixing the required plasmid DNAs with a cationic lipid transfection reagent Transit 2020 (Mirus Bio) for CV1 by following the instructions provided with the reagents. Optimal DNA amounts were determined empirically per cell line and size of vessel to be transfected. For each T175 cm^2 flask a total of 44.4 ug for CV1 of DNA, 133 ul Transit2020 and 4.5 ml DMEM for CV1 was mixed and added. Cells were then incubated at least 5 hours at 37° C. to prepare screening cells.
Assay plates were prepared by dispensing 5 μL of compound per well of a 384 well plate to achieve final compound concentration of 10 μM and no more than 0.5% DMSO. Media was removed from the screening cells, the cells trypsinized, harvested cells by centrifugation, counted, and plated at a density of approximately 1.5×10^4 cells in the 384 well assay plate prepared above in a volume of about 95 uL. Assay plates containing both compounds and screening cells (100 μL in total volume) were incubated for 20 hours at 37° C.
After incubation with compounds, media was removed from the cells and luciferase assay reagent (30 μL/well) added. After ˜2 minutes at ambient temperature, the assay plates were read on a luminometer (PE Biosystems Northstar reader with on-board injectors, or Envision (Perkin Elmer) or equivalent).
The LXR/LXRE co-transfection assay can be used to establish the EC50/IC50 values for potency and percent activity or inhibition for efficacy. Efficacy defines the activity of a compound relative to a high control ((N-(3-((4-fluorophenyl)-(naphthalene-2-sulfonyl)amino)propyl)-2,2-dimethylpropionamide)) or a low control (DMSO/vehicle). The dose response curves are generated from a 10 point curve with concentrations differing by ½ LOG units. Each point represents the average of 4 wells of data from a 384 well plate.
The data from this assay is fitted to the following equation, from which the EC50 value may be solved: Y=Bottom+(Top−Bottom)/(1+10^((log EC50-X)*HillSlope)).
The EC50/IC50 is therefore defined as the concentration at which an agonist or antagonist elicits a response that is halfway between the Top (maximum) and Bottom (baseline) values. The EC50/IC50 values represented are the averages of at least 2 and normally 3 independent experiments. The determination of the relative efficacy or % control for an agonist is by comparison to the maximum response achieved by ((N-(3-((4-fluorophenyl)-(naphthalene-2-sulfonyl)-amino)propyl)-2,2-dimethylpropionamide) that is measured individually in each dose response experiment.
Table 1 lists LXRβ EC50 values and % efficacy measurements in the cotransfection assay for examples of this invention.

Compound	EC50	Emax
Cc1nc(-c2ccc(OC(F)(F)F)cc2)c(-c2cc(-c3cccc(S(C)(=O)=O)c3)ccc2-n2nc(C(F)(F)F)cc2C)o1 [Example 331, 2-methyl-5-(4-(5-methyl-3-(trifluoromethyl)-1H-pyrazol-1-yl)-3′-(methylsulfonyl)biphenyl-3-yl)-4-(4-(trifluoromethoxy)phenyl)oxazole]	61 nM	82%
Cc1nc(-c2ccc(OC(F)(F)F)cc2)c(-c2cc(-c3cccc(C(C)(C)C(N)=O)c3)ccc2-n2ccc(C(=O)NCC(F)(F)F)n2)o1 [Example 366]	293 nM	28%
CC(C)c1nc(-c2ccc(OC(F)(F)F)cc2)c(-c2cc(-c3cccc(S(C)(=O)=O)c3)ccc2-n2ccc(C(F)(F)F)n2)o1 [Example 340, 2-isopropyl-5-(3′-(methylsulfonyl)-4-(3-(trifluoromethyl)-1H-pyrazol-1-yl)biphenyl-3-yl)-4-(4-(trifluoromethoxy)phenyl)oxazole]	279 nM	72%
CNS(=O)(=O)c1cccc(-c2ccc(-c3cc(C(F)(F)F)nn3C)c(-c3oc(C)nc3-c3ccc(OC(F)(F)F)cc3)c2)c1 [Example 127, N-methyl-4′-(1-methyl-3-(trifluoromethyl)-1H-pyrazol-5-yl)-3′-(2-methyl-4-(4-(trifluoromethoxy)phenyl)oxazol-5-yl)-[1,1′-biphenyl]-3-sulfonamide]	59 nM	99%
Cc1nc(-c2ccc3c(c2)OC(F)(F)O3)c(-c2cc(-c3cccc(S(C)(=O)=O)c3)ccc2-n2ccc(C#N)n2)o1 [Example 362, 1-(3-(4-(2,2-difluorobenzo[d][1,3]dioxol-5-yl)-2-methyloxazol-5-yl)-3′-(methylsulfonyl)-[1,1′-biphenyl]-4-yl)-1H-pyrazole-3-carbonitrile]	64 nM	22%
Cc1nc(-c2cc(-c3cccc(S(C)(=O)=O)c3)ccc2-n2nc(C(F)(F)F)cc2C)c(-c2ccc3c(c2)OC(F)(F)O3)o1 [Example 388, 5-(2,2-difluorobenzo[d][1,3]dioxol-5-yl)-2-methyl-4-(4-(5-methyl-3-(trifluoromethyl)-1H-pyrazol-1-yl)-3′-(methylsulfonyl)biphenyl-3-yl)oxazole]	9 nM	78%
CCOc1cc(C(F)(F)F)nn1-c1ccc(-c2cccc(S(C)(=O)=O)c2)cc1-c1nc(C)oc1-c1ccc(OC(F)(F)F)cc1 [Example 311, 4-(4-(5-ethoxy-3-(trifluoromethyl)-1H-pyrazol-1-yl)-3′-(methylsulfonyl)biphenyl-3-yl)-2-methyl-5-(4-(trifluoromethoxy)phenyl)oxazole]	798 nM	37%

Other lines, results leading:

EC50	Emax	Compound
62 nM	77%	Cc1nc(-c2cc(F)c(OC(F)F)c(F)c2)c(-c2cc(-c3cccc(S(C)(=O)=O)c3)ccc2-n2ccc(C(F)(F)F)n2)o1 [Example 351, 4-(4-(difluoromethoxy)-3,5-difluorophenyl)-2-methyl-5-(3′-(methylsulfonyl)-4-(3-(trifluoromethyl)-1H-pyrazol-1-yl)biphenyl-3-yl)oxazole]
200 nM	60%	CC(C)c1nc(-c2cc(-c3cccc(S(C)(=O)=O)c3)ccc2-n2ccc(C(F)(F)F)n2)c(-c2ccc(OC(F)(F)F)cc2)o1 [Example 399, 2-isopropyl-4-(3′-(methylsulfonyl)-4-(3-(trifluoromethyl)-1H-pyrazol-1-yl)biphenyl-3-yl)-5-(4-(trifluoromethoxy)phenyl)oxazole]
196 nM	65%	Cc1nc(-c2ccc(Cl)c(OC(F)F)c2)c(-c2cc(-c3cccc(S(C)(=O)=O)c3)ccc2-n2ccc(C(F)(F)F)n2)o1 [Example 355, 4-(4-chloro-3-(difluoromethoxy)phenyl)-2-methyl-5-(3′-(methylsulfonyl)-4-(3-(trifluoromethyl)-1H-pyrazol-1-yl)biphenyl-3-yl)oxazole]
52 nM	60%	Cc1nc(-c2ccc(OC(F)(F)F)cc2)c(-c2cc(-c3cccc(S(C)(=O)=O)c3)ccc2-n2ccc(C(C)(F)F)n2)o1 [Example 442, 5-(4-(3-(1,1-difluoroethyl)-1H-pyrazol-1-yl)-3′-(methylsulfonyl)-[1,1′-biphenyl]-3-yl)-2-methyl-4-(4-(trifluoromethoxy)phenyl)oxazole]
744 nM	40%	Cc1cc(C(F)(F)F)n(-c2ccc(-c3cccc(S(C)(=O)=O)c3)cc2-c2nc(C)oc2-c2ccc(OC(F)F)cc2)n1 [Example 393, 5-(4-(difluoromethoxy)phenyl)-2-methyl-4-(4-(3-methyl-5-(trifluoromethyl)-1H-pyrazol-1-yl)-3′-(methylsulfonyl)biphenyl-3-yl)oxazole]
10 nM	101%	Cc1nc(-c2ccc(OC(F)F)nc2)c(-c2cc(-c3cc(F)c(CO)c(S(C)(=O)=O)c3)ccc2-n2ccc(C(F)(F)F)n2)o1 [Example 354, (3′-(4-(6-(difluoromethoxy)pyridin-3-yl)-2-methyloxazol-5-yl)-3-fluoro-5-(methylsulfonyl)-4′-(3-(trifluoromethyl)-1H-pyrazol-1-yl)biphenyl-4-yl)methanol]
38 nM	63%	CC(C)c1nc(-c2cc(-c3cc(F)c(CO)c(S(C)(=O)=O)c3)ccc2-n2ccc(C(F)(F)F)n2)c(-c2ccc(OC(F)(F)F)cc2)o1 [Example 398, (3-fluoro-3′-(2-isopropyl-5-(4-(trifluoromethoxy)phenyl)oxazol-4-yl)-5-(methylsulfonyl)-4′-(3-(trifluoromethyl)-1H-pyrazol-1-yl)biphenyl-4-yl)methanol]
20 nM	82%	Cc1nc(-c2cc(-c3cc(F)c(CO)c(S(C)(=O)=O)c3)ccc2-n2ccc(C(F)(F)F)n2)c(-c2cc(F)c(OC(F)F)c(F)c2)o1 [Example 410, (3′-(5-(4-(difluoromethoxy)-3,5-difluorophenyl)-2-methyloxazol-4-yl)-3-fluoro-5-(methylsulfonyl)-4′-(3-(trifluoromethyl)-1H-pyrazol-1-yl)biphenyl-4-yl)methanol]
